Experimental findings from ChEMBL document CHEMBL3272344, “Synthesis of 5-substituted aminomethyluracils via the Mannich reaction” (J Med Chem, 1976) are described below.

One series has as its system L1210. The series can be described thus: Antitumor activity against mouse L1210 cells allografted in mouse up to 400 mg/kg. Set-up: dose 400 mg/kg. It counts as functional, organism-based.
The subject of series [1] is Mus musculus. The experiment in a line: Toxicity in mouse L1210 cells allografted mouse up to 400 mg/kg. The note with it: in vivo. Set-up: dose 400 mg/kg. It counts as organism-based.
Series [2] has as its system Plasmodium gallinaceum. The experiment in a line: Antimalarial activity against Plasmodium gallinaceum B infected in chick at 120 mg/kg. It counts as functional, organism-based. Set-up: dose 120 mg/kg.
The subject of series [3] is Gallus gallus. The series can be described thus: Toxicity in Plasmodium gallinaceum B infected chick at 120 mg/kg. It counts as organism-based. Set-up: dose 120 mg/kg. The settings on record: chicken, in vivo.
Series [4] has as its system Plasmodium berghei. The experiment in a line: Antimalarial activity against Plasmodium berghei infected in mouse at 640 mg/kg. It is filed as functional, organism-based. Set-up: dose 640 mg/kg.
Series [5] concerns Mus musculus. The experiment in a line: Toxicity in Plasmodium berghei infected mouse at 640 mg/kg. Set-up: dose 640 mg/kg. The settings on record: in vivo. It counts as organism-based.
In series [6] the test system is Plasmodium gallinaceum. The experiment in a line: Antimalarial activity against Plasmodium gallinaceum B infected in chick at 160 mg/kg. It counts as functional, organism-based. Set-up: dose 160 mg/kg.
Series [7] has as its system Plasmodium berghei. The experiment in a line: Antimalarial activity against Plasmodium berghei infected in mouse at 320 mg/kg. It is filed as functional, organism-based. Set-up: dose 320 mg/kg.
The subject of series [8] is Gallus gallus. The series can be described thus: Toxicity in Plasmodium gallinaceum B infected chick at 160 mg/kg. It counts as organism-based. Set-up: dose 160 mg/kg. The note with it: chicken, in vivo.
Series [9] relates to Mus musculus. The experiment in a line: Toxicity in Plasmodium berghei infected mouse at 320 mg/kg. Set-up: dose 320 mg/kg. The settings on record: in vivo. It is filed as organism-based.
Series [10] deals with Plasmodium gallinaceum. The experiment in a line: Antimalarial activity against Plasmodium gallinaceum B infected in chick at 100 mg/kg. It is filed as functional, organism-based. Set-up: dose 100 mg/kg.
Series [11] relates to Gallus gallus. The series can be described thus: Toxicity in Plasmodium gallinaceum B infected chick at 100 mg/kg. It is filed as organism-based. Set-up: dose 100 mg/kg. The settings on record: chicken, in vivo.

The source made the active and inactive calls. No cut-off for these calls is given here.

On to `O=c1[nH]cc(CNc2ccccc2)c(=O)[nH]1`, for which the result in the series with L1210, in the series on Plasmodium gallinaceum [2] and in the series on Plasmodium berghei [4] was inactive. Also, the Activity entry in the series on Mus musculus [1], in the series with Gallus gallus [3] and with Mus musculus [5] was “Non-toxic” in each case.

Turning to `COc1ccc(NCc2c[nH]c(=O)[nH]c2=O)cc1`, the result in the series on Plasmodium gallinaceum [6] and in the series on Plasmodium berghei [7] was inactive. Besides, the Activity result in the series on Gallus gallus [8] and with Mus musculus [9] was “Non-toxic” each time.

In the case of `CN(C)Cc1c[nH]c(=O)[nH]c1=O`, the result in the series on L1210 was inactive. The Activity result with Mus musculus [1] is on record as “Non-toxic”.

For `CCCCNCc1c[nH]c(=O)[nH]c1=O`, the outcome in the series with Plasmodium gallinaceum [10] and in the series with Plasmodium berghei [4] was inactive. In addition, the Activity result with Gallus gallus [11] and in the series on Mus musculus [5] was “Non-toxic” throughout.

Consider `O=c1[nH]cc(CNc2ccc(Cl)cc2)c(=O)[nH]1`, for which the result in the series on Plasmodium berghei [7] was inactive. Further, the Activity entry with Mus musculus [9] is given as “Non-toxic”.

Turning to `Cc1cccc(NCc2c[nH]c(=O)[nH]c2=O)c1`, the result in the series with Plasmodium berghei [4] was inactive. Besides, the Activity entry with Mus musculus [5] was “Non-toxic”.

With `O=c1[nH]cc(CNC2CCCCC2)c(=O)[nH]1`, the result with L1210, with Plasmodium gallinaceum [6] and in the series with Plasmodium berghei [7] was inactive. Besides, the Activity result with Mus musculus [1], in the series on Gallus gallus [8] and in the series with Mus musculus [9] was “Non-toxic” in each case.
